Laboratory results: patent US20110178396A1, “Nicotinamide Derivatives” (CRC FOR BIOMEDICAL IMAGING DEVELOPMENT LTD., priority 2008, published 2011)

Test system: B16F0 melanoma tumour
Experiment: Biodistribution in B16 melanoma bearing mice
Format: in vivo, C57BL/6J mice
Conditions: C57BL/6J mice; for Organ distribution Intestine / Organ distribution Liver / Organ distribution Spleen / Organ distribution Stomach / Organ distribution Thyroid / Organ distribution Tumour: B16F0 tumour, mean ± S.D.; for Organ distribution Intestine / Organ distribution Liver / Organ distribution Spleen / Organ distribution Stomach / Organ distribution Thyroid / Organ distribution Tumour / Uptake Lung / uptake BLOOD / uptake BRAIN / uptake HEART / uptake KIDNEY / uptake LIVER / uptake TUMOUR: n = 5; for tumour standardized uptake value (SUVt) / Uptake Lung / uptake BLOOD / uptake BRAIN / uptake HEART / uptake KIDNEY / uptake LIVER / uptake TUMOUR: B16 tumour; for Uptake Lung / uptake BLOOD / uptake BRAIN / uptake HEART / uptake KIDNEY / uptake LIVER / uptake TUMOUR: mean ± SD
In short: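 B16F0 tumours in C57BL/6J mice (day 11) and A375 xenografts in BALB/c nude mice (day 25), subcutaneous left flank. Radiotracer given i.v. by tail vein (18F 0.5–1.5 MBq; 123I 0.37–0.74 MBq); n=5 per time point, 15 min–6 h (18F) or 1–72 h (123I). Organs γ-counted as % ID/g.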

## CCN(CC)CCNC(=O)c1cncc(I)c1 [[^123I]11, N-(2-(diethylamino)ethyl)-5-iodonicotinamide]
1 h
  Organ distribution Intestine: 15 ± 2 % ID/organ
  Organ distribution Liver: 1.8 ± 0.3 % ID/organ
  Organ distribution Spleen: 0.16 ± 0.16 % ID/organ
  Organ distribution Stomach: 2.0 ± 0.2 % ID/organ
  Organ distribution Thyroid: 0.37 ± 0.07 % ID/organ
  Organ distribution Tumour: 1.3 ± 0.3 % ID/organ
  tumour standardized uptake value (SUVt): 3.7 ± 1.0
  Uptake Lung: 1.4 ± 0.2 % ID/g
  uptake BLOOD: 1.21 ± 0.17 % ID/g
  uptake BRAIN: 0.14 ± 0.02 % ID/g
  uptake HEART: 0.8 ± 0.1 % ID/g
  uptake KIDNEY: 1.8 ± 0.5 % ID/g
  uptake LIVER: 1.9 ± 0.3 % ID/g
  uptake TUMOUR: 7.8 ± 1.7 % ID/g
3 h
  Organ distribution Intestine: 5 ± 2 % ID/organ
  Organ distribution Liver: 0.82 ± 0.08 % ID/organ
  Organ distribution Spleen: 0.06 ± 0.05 % ID/organ
  Organ distribution Stomach: 1.3 ± 0.3 % ID/organ
  Organ distribution Thyroid: 1.1 ± 0.3 % ID/organ
  Organ distribution Tumour: 1.0 ± 0.4 % ID/organ
  tumour standardized uptake value (SUVt): 7.4 ± 1.6
  Uptake Lung: 0.75 ± 0.07 % ID/g
  uptake BLOOD: 0.92 ± 0.09 % ID/g
  uptake BRAIN: 0.07 ± 0.01 % ID/g
  uptake HEART: 0.4 ± 0.04 % ID/g
  uptake KIDNEY: 0.8 ± 0.1 % ID/g
  uptake LIVER: 0.9 ± 0.1 % ID/g
  uptake TUMOUR: 6.0 ± 0.4 % ID/g
6 h
  Organ distribution Intestine: 2.8 ± 0.4 % ID/organ
  Organ distribution Spleen: 0.05 ± 0.04 % ID/organ
  Organ distribution Stomach: 1.2 ± 0.2 % ID/organ
  Organ distribution Thyroid: 1.8 ± 1.0 % ID/organ
  Organ distribution Tumour: 1.1 ± 0.3 % ID/organ
  tumour standardized uptake value (SUVt): 12 ± 1
  Uptake Lung: 0.47 ± 0.11 % ID/g
  uptake BLOOD: 0.58 ± 0.14 % ID/g
  uptake BRAIN: 0.04 ± 0.01 % ID/g
  uptake HEART: 0.26 ± 0.06 % ID/g
  uptake KIDNEY: 0.5 ± 0.1 % ID/g
  uptake LIVER: 0.6 ± 0.1 % ID/g
  uptake TUMOUR: 5.9 ± 0.7 % ID/g
24 h
  Organ distribution Intestine: 0.10 ± 0.02 % ID/organ
  Organ distribution Liver: 0.12 ± 0.01 % ID/organ
  Organ distribution Spleen: 0.01 ± 0.03 % ID/organ
  Organ distribution Stomach: 0.04 ± 0.01 % ID/organ
  Organ distribution Thyroid: 1.0 ± 0.3 % ID/organ
  Organ distribution Tumour: 0.7 ± 0.1 % ID/organ
  tumour standardized uptake value (SUVt): 37 ± 9
  Uptake Lung: 0.03 ± 0.02 % ID/g
  uptake BLOOD: 0.03 ± 0.01 % ID/g
  uptake BRAIN: 0.01 % ID/g
  uptake HEART: 0.04 ± 0.01 % ID/g
  uptake KIDNEY: 0.03 ± 0.01 % ID/g
  uptake LIVER: 0.12 ± 0.02 % ID/g
  uptake TUMOUR: 3.2 ± 0.9 % ID/g
48 h
  Organ distribution Intestine: 0.06 ± 0.01 % ID/organ
  Organ distribution Liver: 0.06 ± 0.01 % ID/organ
  Organ distribution Spleen: 0.00 ± 0.00 % ID/organ
  Organ distribution Stomach: 0.02 ± 0.01 % ID/organ
  Organ distribution Thyroid: 1.4 ± 0.3 % ID/organ
  Organ distribution Tumour: 0.7 ± 0.4 % ID/organ
  tumour standardized uptake value (SUVt): 22 ± 5
  Uptake Lung: 0.04 ± 0.01 % ID/g
  uptake BRAIN: 0.01 % ID/g
  uptake HEART: 0.03 ± 0.01 % ID/g
  uptake KIDNEY: 0.03 ± 0.01 % ID/g
  uptake LIVER: 0.08 ± 0.02 % ID/g
  uptake TUMOUR: 2.2 ± 0.4 % ID/g
72 h
  Organ distribution Intestine: 0.04 ± 0.01 % ID/organ
  Organ distribution Liver: 0.04 ± 0.01 % ID/organ
  Organ distribution Spleen: 0.01 ± 0.01 % ID/organ
  Organ distribution Stomach: 0.01 ± 0.01 % ID/organ
  Organ distribution Thyroid: 1.0 ± 0.6 % ID/organ
  Organ distribution Tumour: 0.3 ± 0.1 % ID/organ
  tumour standardized uptake value (SUVt): 18 ± 12
  Uptake Lung: 0.04 ± 0.04 % ID/g
  uptake BLOOD: 0.02 ± 0.01 % ID/g
  uptake BRAIN: 0.01 % ID/g
  uptake HEART: 0.06 ± 0.02 % ID/g
  uptake KIDNEY: 0.02 ± 0.02 % ID/g
  uptake LIVER: 0.04 ± 0.01 % ID/g
  uptake TUMOUR: 1.4 ± 0.3 % ID/g
